Test [1] has as its target T1, EIF2AK3 (PERK) catalytic domain (amino acids 536-1116) (Homo sapiens, UniProt Q9NZJ5).
T1 construct: EIF2AK3 (PERK) catalytic domain (amino acids 536-1116)
T1 sequence (Q9NZJ5 536-1116): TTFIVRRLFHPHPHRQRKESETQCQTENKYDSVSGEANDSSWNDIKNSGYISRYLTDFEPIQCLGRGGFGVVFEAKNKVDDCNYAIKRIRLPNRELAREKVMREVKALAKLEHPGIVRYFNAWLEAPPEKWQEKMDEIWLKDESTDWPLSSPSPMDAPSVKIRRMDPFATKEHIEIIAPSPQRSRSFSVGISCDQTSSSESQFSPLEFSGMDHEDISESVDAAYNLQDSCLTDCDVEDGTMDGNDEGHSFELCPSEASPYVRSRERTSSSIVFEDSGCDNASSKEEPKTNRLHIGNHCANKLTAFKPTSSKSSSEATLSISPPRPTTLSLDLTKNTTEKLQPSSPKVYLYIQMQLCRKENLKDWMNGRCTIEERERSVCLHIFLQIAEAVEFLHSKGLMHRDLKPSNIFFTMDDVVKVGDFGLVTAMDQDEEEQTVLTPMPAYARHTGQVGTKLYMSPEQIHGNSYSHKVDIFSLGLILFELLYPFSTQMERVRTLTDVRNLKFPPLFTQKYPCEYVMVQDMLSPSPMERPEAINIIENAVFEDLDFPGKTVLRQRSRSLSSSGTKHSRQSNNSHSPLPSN
Briefly: PERK in vitro activity assay (isolated), TR-FRET kinase assay. In kind it is biochemical. Particulars: isolated PERK enzyme, 1.5 μM ATP; read-out: Biochemical IC50. The text has this: PERK In Vitro Activity Assay (Isolated):
In vitro Inhibition of PERK Enzyme Activity (isolated) Recombinant human EIF2AK2 (PKR) catalytic domain (amino acids 252-551), EIF2AK3 (PERK) catalytic domain (amino acids 536-1116), GFP-eIF2a substrate, and Terbium-labelled phospho-eIF2a antibody is obtained (Invitrogen, Carlsbad, Calif.).
Express and purify HIS-SUMO-GCN2 catalytic domain (amino acids 584-1019) from E. coli. Perform TR-FRET kinase assays in the absence or presence of inhibitors in a reaction buffer consisting of 50 mM HEPES, pH 7.5, 10 mM MgCb, 1.0 mM EGTA, and 0.01% Brij-35, and 100-200 nM GFP-eIF2a substrate. […] Add test compound, initiate the reaction by addition of enzyme, and incubate at room temperature for 45 minutes. Stop the reaction by addition of EDTA to a final concentration of 10 mM, add Terbium-labelled phospho-eIF2a antibody at a final concentration of 2 nM, and incubate for 90 minutes. Monitor the resulting fluorescence in an EnVison® Multilabel reader (PerkinElmer, Waltham, Mass.). Determine TR-FRET ratios and the resulting IC50 values using a 4-parameter nonlinear logistic equation as shown: Y=(A+((B−A)/(1+((C/x)[…])))) where, Y=% specific inhibition, A=Bottom of the curve, B=Top of the curve, C=absolute IC50 (concentration causing 50% inhibition), and D=hill slope.

Test [2] concerns GFP-eIF2α in HEK293 cells. In words: PERK cellular assay, TR-FRET in HEK293-EGFP-eIF2a cells after tunicamycin-induced ER stress. Type of test: cell-based. The settings on record: HEK293-EGFP-eIF2a cells, tunicamycin 2 hours, read-out: Cellular eIF2α IC50. Here is the method:
Stable cell lines were created in HEK293 cells using lentiviral particles harboring an expression vector for GFP-eIF2α. Cells were selected using puromycin and enriched using fluorescence activated cell sorting against GFP. HEK293-EGFP-eIF2a cells were plated at 5000 cells/well in 384-well assay plates and incubated overnight at 37° C., 5% CO2. Inhibitor compounds were added to the wells by Echo acoustic dispensing and incubated for 30 minutes at 37° C., 5% CO2 prior to induction of ER stress by addition of tunicamycin to […] for 2 hours. Cells were lysed and TR-FRET was measured in an EnVision plate reader (PerkinElmer). FRET ratio data was normalized to signal from lysates treated with DMSO vehicle control and plotted as percent inhibition against 10-point; 3-fold dilution series of inhibitors. IC50 values were calculated using 4-parameter logistical fitting in XLFit.

pIC50: −log10 of the molar value. Where two headings read alike, the source gives them in different places.

As usually defined, the pIC50 is the negative decadic logarithm of the IC50, by convention in mol/L.

As for `Cc1nc(N)c2c(-c3ccc(NC(=O)C(O)c4cccc(F)c4)cc3C)cn(C)c2n1` (single isomer, unassigned) [Example 2, N-(4-(4-amino-2,7-dimethyl-7H-pyrrolo[2,3-d]pyrimidin-5-yl)-3-methylphenyl)-2-(3-fluorophenyl)-2-hydroxyacetamide], the pIC50 in test [1] is 7.00 to 7.29; in test [2], 6.30 to 6.60. Regarding `Cc1nc(N)c2c(-c3cnc(NC(=O)C(O)c4cccc(F)c4)cc3C)cn(C)c2n1` (stereo not shown) [Example 134, N-(5-(4-amino-2,7-dimethyl-7H-pyrrolo[2,3-d]pyrimidin-5-yl)-4-methylpyridin-2-yl)-2-(3-fluorophenyl)-2-hydroxyacetamide], the negative-log IC50 (pIC50) is 7.60 to 9.00 in test [1] and 6.60 to 7.00 in test [2]. In the case of `Cc1nc(N)c2c(-c3ccc(NC(=O)C(O)c4ccccc4C(F)(F)F)cc3C)cn(C)c2n1` (stereo not shown) [Example 46, N-(4-(4-amino-2,7-dimethyl-7H-pyrrolo[2,3-d]pyrimidin-5-yl)-3-methylphenyl)-2-hydroxy-2-(2-(trifluoromethyl)phenyl)acetamide], the pIC50 in test [1] is 6.30 to 6.60; in test [2] (Homo sapiens, HEK293, 2 h), 5.52 to 5.70. As to `Cc1nc(N)c2c(-c3ccc(NC(=O)C(O)c4cccc(Cl)c4)cc3F)cn(C)c2n1` (stereo not shown) [Example 82, N-(4-(4-amino-2,7-dimethyl-7H-pyrrolo[2,3-d]pyrimidin-5-yl)-3-fluorophenyl)-2-(3-chlorophenyl)-2-hydroxyacetamide], the pIC50 in test [1] and in test [2] was 7.60 to 9.00 each time.

For `Cc1nc(N)c2c(-c3ccc(NC(=O)C(O)c4cccc(C(F)(F)F)c4)cc3C)cn(C)c2n1` (stereo not shown) [Example 50, N-(4-(4-amino-2,7-dimethyl-7H-pyrrolo[2,3-d]pyrimidin-5-yl)-3-methylphenyl)-2-hydroxy-2-(3-(trifluoromethyl)phenyl)acetamide], the pIC50 in test [1] and in test [2] was 7.60 to 9.00 each time. `Cc1nc(N)c2c(-c3ccc(NC(=O)C(O)c4cccc(F)c4)cc3Cl)cn(C)c2n1` (stereo not shown) [Example 92, N-(4-(4-amino-2,7-dimethyl-7H-pyrrolo[2,3-d]pyrimidin-5-yl)-3-chlorophenyl)-2-(3-fluorophenyl)-2-hydroxyacetamide]: the negative-log IC50 (pIC50) in test [1] is 7.60 to 9.00; in test [2] it was 7.00 to 7.29. `Cn1cc(-c2ccc(NC(=O)C(O)c3cccc(F)c3)cc2)c2c(N)ncnc21` (stereo not shown) [Example 29, N-(4-(4-amino-7-methyl-7H-pyrrolo[2,3-d]pyrimidin-5-yl)phenyl)-2-(3-fluorophenyl)-2-hydroxyacetamide]: the pIC50 in test [1] and in test [2] was 7.60 to 9.00 throughout. As for `Cc1nc(N)c2c(-c3ccc(NC(=O)C(O)c4ccccc4C)cc3F)cn(C)c2n1` (stereo not shown) [Example 72, N-(4-(4-amino-2,7-dimethyl-7H-pyrrolo[2,3-d]pyrimidin-5-yl)-3-fluorophenyl)-2-hydroxy-2-(o-tolyl)acetamide], the pIC50 in test [2] is 7.30 to 7.59. With `Cc1cc(NC(=O)Cc2cccc(C(F)(F)F)c2)ccc1-c1cn(C)c2ncnc(N)c12` [Example 158, N-(4-(4-amino-7-methyl-7H-pyrrolo[2,3-d]pyrimidin-5-yl)-3-methylphenyl)-2-(3-(trifluoromethyl)phenyl)acetamide], in test [1], the pIC50 is 7.60 to 9.00. Regarding `Cc1cc(NC(=O)Cc2ccccc2F)ccc1-c1cn(C)c2ncnc(N)c12` [Example 160, N-(4-(4-amino-7-methyl-7H-pyrrolo[2,3-d]pyrimidin-5-yl)-3-methylphenyl)-2-(2-fluorophenyl)acetamide], the pIC50 in test [1] is 7.60 to 9.00. Same read-out and setting: for `Cc1cc(NC(=O)Cc2cccc(F)c2)ccc1-c1cn(C)c2ncnc(N)c12` [Example 161] the value was 7.30 to 7.59. Turning to `Cc1nc(N)c2c(-c3ccc(NC(=O)C(O)c4ccccc4C)cc3F)cn(C)c2n1` (stereo not shown) [Example 71, N-(4-(4-amino-2,7-dimethyl-7H-pyrrolo[2,3-d]pyrimidin-5-yl)-3-fluorophenyl)-2-hydroxy-2-(o-tolyl)acetamide], the pIC50 in test [2] is 5.52 to 5.70.

The values are drawn from patent US20220356186A1, “PERK INHIBITING PYRROLOPYRIMIDINE COMPOUNDS” (HiberCell, Inc., priority 2019, published 2022).
